From ChEMBL document CHEMBL1146473, “Tyromycic acids B-E, new lanostane triterpenoids from the mushroom Tyromyces fissilis” (J Nat Prod, 2004)
Calls of active or inactive are those of the source. The rule behind the calls is not given here.

Key:
[1] = test system: Human immunodeficiency virus 1; assay: Antiviral activity against HIV1 infected in human MT4 cells; format: functional, organism-based
[2] = test system: Radical scavenging activity; assay: Antioxidant activity assessed as DPPH radical scavenging activity; format: functional

Q: Which results are given for `CC(=O)O[C@@H]1C=C2C(=CC[C@H]3C(C)(C)[C@@H](O)CC[C@]23C)[C@]2(C)CC[C@H]([C@H](C)CC/C=C(\C)C(=O)O)[C@@]12C`?
A: Activity [1]: inactive; Activity [2]: inactive

Q: For `C/C(=C\CC[C@@H](C)[C@H]1CC[C@@]2(C)C3=CC[C@H]4C(C)(C)C(=O)CC[C@]4(C)C3=C[C@@H](O)[C@]12C)C(=O)O`, which Activity [1] is on record?
A: The Activity was “inactive”.

Q: And the Activity [2]?
A: The Activity was “inactive”.

Q: Which Activity [1] does the source give for `CC(=O)O[C@@H]1C2=C(CC[C@H]3C(C)(C)C(=O)CC[C@]23C)[C@]2(C)CC[C@H]([C@H](C)CC/C=C(\C)C(=O)O)[C@@]2(C)[C@@H]1OC(C)=O` here?
A: Its Activity is “inactive”.

Q: And the Activity [2]?
A: Its Activity is “inactive”.
